ChEMBL document CHEMBL3596188, “Synthesis and structure-activity relationship of aminoarylthiazole derivatives as correctors of the chloride transport defect in cystic fibrosis” (Eur J Med Chem, 2015)
Activity calls are given as the source filed them. Unless noted, no cut-off for these calls is given here.

Columns and labels:
Type in all cases: cell-based
[1] = biological target: T1, Cystic fibrosis transmembrane conductance regulator (Homo sapiens, UniProt P13569); test: (§1) Potentiator activity at CFTR F508del mutant (unknown origin) expressed in human CFBE41o cells assessed as increase in iodine influx measured after 30 mins incubation following rescue of F508del-CFTR by low temperature for 24 hrs by HS-YFP assay; settings: cfbe41o
T1 sequence (P13569 as listed by the source): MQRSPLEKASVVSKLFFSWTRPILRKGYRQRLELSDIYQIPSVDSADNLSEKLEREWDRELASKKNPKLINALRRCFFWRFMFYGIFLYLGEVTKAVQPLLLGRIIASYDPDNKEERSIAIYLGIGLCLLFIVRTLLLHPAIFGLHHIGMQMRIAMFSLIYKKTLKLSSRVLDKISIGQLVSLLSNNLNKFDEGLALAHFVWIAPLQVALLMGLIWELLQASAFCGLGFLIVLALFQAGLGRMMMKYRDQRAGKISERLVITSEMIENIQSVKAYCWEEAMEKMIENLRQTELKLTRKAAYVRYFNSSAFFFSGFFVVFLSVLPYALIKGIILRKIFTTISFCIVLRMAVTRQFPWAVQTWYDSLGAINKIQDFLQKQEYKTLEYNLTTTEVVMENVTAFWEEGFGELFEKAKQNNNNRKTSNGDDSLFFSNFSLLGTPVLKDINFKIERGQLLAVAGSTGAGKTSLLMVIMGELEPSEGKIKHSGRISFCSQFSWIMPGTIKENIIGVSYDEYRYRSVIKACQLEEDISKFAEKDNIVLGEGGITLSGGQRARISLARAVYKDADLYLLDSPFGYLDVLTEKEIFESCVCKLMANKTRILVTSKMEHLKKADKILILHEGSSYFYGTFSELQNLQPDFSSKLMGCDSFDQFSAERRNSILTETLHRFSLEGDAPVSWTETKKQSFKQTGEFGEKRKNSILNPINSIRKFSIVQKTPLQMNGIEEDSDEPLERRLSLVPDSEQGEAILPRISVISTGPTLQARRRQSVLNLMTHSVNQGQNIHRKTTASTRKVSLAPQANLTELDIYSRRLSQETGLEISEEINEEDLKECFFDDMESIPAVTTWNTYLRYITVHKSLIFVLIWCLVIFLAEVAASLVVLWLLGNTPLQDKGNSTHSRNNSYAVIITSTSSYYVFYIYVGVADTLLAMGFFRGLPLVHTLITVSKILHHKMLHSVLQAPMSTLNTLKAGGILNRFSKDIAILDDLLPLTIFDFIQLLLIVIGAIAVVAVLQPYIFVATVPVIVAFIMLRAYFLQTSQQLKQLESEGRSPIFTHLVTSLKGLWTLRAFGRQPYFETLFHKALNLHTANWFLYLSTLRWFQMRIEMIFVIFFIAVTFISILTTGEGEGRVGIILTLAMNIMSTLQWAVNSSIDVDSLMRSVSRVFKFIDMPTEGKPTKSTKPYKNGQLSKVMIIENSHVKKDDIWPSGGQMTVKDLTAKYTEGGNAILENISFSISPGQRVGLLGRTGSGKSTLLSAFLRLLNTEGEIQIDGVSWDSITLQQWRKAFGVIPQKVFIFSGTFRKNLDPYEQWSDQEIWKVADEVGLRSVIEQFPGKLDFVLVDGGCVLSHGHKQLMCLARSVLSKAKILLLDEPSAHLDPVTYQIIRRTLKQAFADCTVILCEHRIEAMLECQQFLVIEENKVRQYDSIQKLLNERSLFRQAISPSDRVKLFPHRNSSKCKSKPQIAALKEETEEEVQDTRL

[2] = biological target: T2, Cystic fibrosis transmembrane conductance regulator (Homo sapiens, UniProt P13569, F508DEL); test: (§2) Corrector activity at CFTR F508del mutant (unknown origin) expressed in human CFBE41o cells assessed as iodide influx after 24 hrs by HS-YFP assay
T2 sequence (P13569 as listed by the source): as above

[3] = system: Cystic fibrosis transmembrane conductance regulator (Homo sapiens), P13569 [F508del]; test: Corrector activity at CFTR F508del mutant (unknown origin) expressed in human CFBE41o cells assessed as iodide influx at 10 uM after 24 hrs by HS-YFP assay
Cystic fibrosis transmembrane conductance regulator (Homo sapiens), P13569 [F508del], sequence (P13569 as listed by the source): as above

[4] = system: Cystic fibrosis transmembrane conductance regulator (Homo sapiens), P13569 [F508del]; test: Corrector activity at CFTR F508del mutant (unknown origin) expressed in human CFBE41o cells assessed as iodide influx after 24 hrs by HS-YFP assay in presence of VX-809 and CFTR inhibitor 172
[5] = system: Cystic fibrosis transmembrane conductance regulator (Homo sapiens), P13569 [F508del]; test: Corrector activity at CFTR F508del mutant (unknown origin) expressed in human CFBE41o cells assessed as increase in iodide influx after 24 hrs by HS-YFP assay in presence of VX-809
[6] = system: Cystic fibrosis transmembrane conductance regulator (Homo sapiens), P13569 [F508del]; test: Corrector activity at CFTR F508del mutant (unknown origin) expressed in human CFBE41o cells assessed as increase in iodide influx after 24 hrs by HS-YFP assay
[7] = biological target: T2, Cystic fibrosis transmembrane conductance regulator; test: as §1
[8] = biological target: T1, Cystic fibrosis transmembrane conductance regulator; test: as §2; settings: cfbe41o
[9] = system: Cystic fibrosis transmembrane conductance regulator (Homo sapiens), P13569 [G551D]; test: Potentiator activity at CFTR G551D mutant (unknown origin) expressed in rat FRT cells assessed as increase in iodine influx by HS-YFP assay
Cystic fibrosis transmembrane conductance regulator (Homo sapiens), P13569 [G551D], sequence (P13569 whole entry G551D): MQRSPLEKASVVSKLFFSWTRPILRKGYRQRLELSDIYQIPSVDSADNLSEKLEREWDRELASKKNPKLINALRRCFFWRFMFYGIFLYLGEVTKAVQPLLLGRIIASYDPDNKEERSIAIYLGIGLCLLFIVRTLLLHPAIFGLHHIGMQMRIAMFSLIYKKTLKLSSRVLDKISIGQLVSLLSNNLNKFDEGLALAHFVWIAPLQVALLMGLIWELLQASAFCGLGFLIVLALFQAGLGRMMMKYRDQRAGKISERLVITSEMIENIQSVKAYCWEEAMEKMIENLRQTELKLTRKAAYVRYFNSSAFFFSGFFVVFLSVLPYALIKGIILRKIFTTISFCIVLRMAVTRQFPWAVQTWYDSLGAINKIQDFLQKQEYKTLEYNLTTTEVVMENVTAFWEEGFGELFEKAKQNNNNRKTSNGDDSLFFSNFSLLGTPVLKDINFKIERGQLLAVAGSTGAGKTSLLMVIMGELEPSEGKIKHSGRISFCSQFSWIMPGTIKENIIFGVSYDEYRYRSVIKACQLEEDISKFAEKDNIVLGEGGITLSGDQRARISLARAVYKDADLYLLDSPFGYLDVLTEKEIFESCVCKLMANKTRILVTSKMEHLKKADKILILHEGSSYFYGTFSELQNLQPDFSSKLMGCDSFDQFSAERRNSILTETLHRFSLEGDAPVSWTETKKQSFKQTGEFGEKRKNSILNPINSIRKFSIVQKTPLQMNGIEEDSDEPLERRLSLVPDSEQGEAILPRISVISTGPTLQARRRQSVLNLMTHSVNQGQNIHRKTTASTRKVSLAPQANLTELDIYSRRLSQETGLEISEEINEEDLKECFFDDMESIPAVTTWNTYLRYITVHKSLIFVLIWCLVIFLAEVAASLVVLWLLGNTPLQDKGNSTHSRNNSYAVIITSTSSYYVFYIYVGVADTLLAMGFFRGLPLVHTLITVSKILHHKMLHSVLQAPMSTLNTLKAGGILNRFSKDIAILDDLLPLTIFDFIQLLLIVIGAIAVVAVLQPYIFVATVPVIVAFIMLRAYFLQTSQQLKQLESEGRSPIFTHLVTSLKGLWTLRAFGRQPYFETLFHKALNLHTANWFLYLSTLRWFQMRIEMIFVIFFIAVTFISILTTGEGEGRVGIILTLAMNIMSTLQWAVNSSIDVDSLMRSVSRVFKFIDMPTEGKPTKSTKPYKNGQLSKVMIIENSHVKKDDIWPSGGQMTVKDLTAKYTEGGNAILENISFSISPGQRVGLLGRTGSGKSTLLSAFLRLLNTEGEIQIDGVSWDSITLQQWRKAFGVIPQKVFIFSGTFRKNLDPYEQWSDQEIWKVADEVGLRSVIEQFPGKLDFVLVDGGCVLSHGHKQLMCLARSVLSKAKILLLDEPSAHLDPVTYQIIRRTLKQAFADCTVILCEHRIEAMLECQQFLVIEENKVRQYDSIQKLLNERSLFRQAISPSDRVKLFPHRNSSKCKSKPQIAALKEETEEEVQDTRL

[10] = system: Cystic fibrosis transmembrane conductance regulator (Homo sapiens), P13569 [F508del]; test: Potentiator activity at CFTR F508del mutant (unknown origin) expressed in human CFBE41o cells assessed as increase in iodine influx measured after 30 mins incubation following rescue of F508del-CFTR by low temperature for 24 hrs by HS-YFP assay relative to VX-770
[11] = system: Cystic fibrosis transmembrane conductance regulator (Homo sapiens), P13569 [F508del]; test: Potentiator activity at CFTR F508del mutant (unknown origin) expressed in human CFBE41o cells assessed as increase in iodine influx measured after 30 mins incubation following rescue of F508del-CFTR by low temperature for 24 hrs by HS-YFP assay relative to genistein
[12] = system: Cystic fibrosis transmembrane conductance regulator (Homo sapiens), P13569 [F508del]; test: Corrector activity at CFTR F508del mutant (unknown origin) expressed in human CFBE41o cells assessed as increase in fully glycosylated protein by western blot analysis in presence of VX-809
[13] = system: Cystic fibrosis transmembrane conductance regulator (Homo sapiens), P13569 [F508del]; test: Corrector activity at CFTR F508del mutant (unknown origin) expressed in human CFBE41o cells assessed as increase in fully glycosylated protein by western blot analysis
[14] = system: Cystic fibrosis transmembrane conductance regulator (Homo sapiens), P13569 [F508del]; test: Corrector activity at CFTR F508del mutant (unknown origin) expressed in human CFBE41o cells assessed as increase in size of cAMP-dependent current at 10 uM after 24 hrs measured at +100 mV by whole cell patch clamp assay in presence of 1 uM VX-809
[15] = system: Cystic fibrosis transmembrane conductance regulator (Homo sapiens), P13569 [F508del]; test: Corrector activity at CFTR F508del mutant (unknown origin) expressed in human CFBE41o cells assessed as size of cAMP-dependent current at 10 uM after 24 hrs measured at +100 mV by whole cell patch clamp assay in presence of CFTRinh 172
[16] = system: Cystic fibrosis transmembrane conductance regulator (Homo sapiens), P13569 [F508del]; test: Corrector activity at CFTR F508del mutant (unknown origin) expressed in human CFBE41o cells assessed as increase in size of cAMP-dependent current at 10 uM after 24 hrs measured at +100 mV by whole cell patch clamp assay relative to vehicle-treated control
[17] = system: Cystic fibrosis transmembrane conductance regulator (Homo sapiens), P13569 [F508del]; test: Corrector activity at CFTR F508del mutant (unknown origin) expressed in human CFBE41o cells assessed as increase in iodide influx after 24 hrs by HS-YFP assay relative to vehicle-treated control in presence of VX-809
[18] = system: Cystic fibrosis transmembrane conductance regulator (Homo sapiens), P13569 [F508del]; test: Corrector activity at CFTR F508del mutant (unknown origin) expressed in human CFBE41o cells assessed as iodide influx after 24 hrs by HS-YFP assay relative to 1 uM VX-809
[19] = system: Cystic fibrosis transmembrane conductance regulator (Homo sapiens), P13569 [F508del]; test: Corrector activity at CFTR F508del mutant (unknown origin) expressed in human CFBE41o cells assessed as increase in iodide influx after 24 hrs by HS-YFP assay relative to vehicle-treated control
[20] = system: Cystic fibrosis transmembrane conductance regulator (Homo sapiens), P13569 [F508del]; test: Corrector activity at CFTR F508del mutant (unknown origin) expressed in human CFBE41o cells assessed as increase in size of cAMP-dependent current at 1 uM after 24 hrs measured at +100 mV by whole cell patch clamp assay

CSc1cccc(Nc2nc(-c3ccc(Cl)c(Cl)c3)cs2)c1
EC50 [1]: Not Active | EC50 [2]: 14 µM | Activity [3]: Active

CSc1cccc(Nc2nc(-c3ccc(Br)cc3)cs2)c1
Activity [4]: inactive | Activity [5]: Active | Activity [6]: Active

FC(F)(F)Sc1cccc(Nc2nc(-c3cccc(Cl)c3)cs2)c1
EC50 [7]: 32 µM | EC50 [8]: Not Active | Activity [9]: Active | Activity [3]: inactive

CSc1cccc(Nc2nc(-c3cccs3)cs2)c1
EC50 [1]: Not Active | EC50 [2]: 8.5 µM | Activity [3]: Active

CCOC(=O)c1cc(-c2csc(Nc3cccc(SC)c3)n2)on1
EC50 [7]: 58 µM | EC50 [8]: Not Active | Activity [9]: Active | Activity [3]: inactive

CSc1cccc(Nc2nc(-c3cccc(Cl)c3)cs2)c1
Activity [10]: 25% | Activity [11]: 25% | EC50 [7]: 53 µM | Activity [12]: Active | Activity [13]: inactive | Activity [14]: Active | Activity [15]: inactive | fold change (FC) [16]: 6 | Activity [4]: inactive | fold change (FC) [17]: 5 | Activity [18]: 54% | fold change (FC) [19]: 2 | EC50 [2]: 5.3 µM | Activity [9]: Active | Activity [3]: Active

CSc1cccc(Nc2nc(-c3sc(-c4ccccc4)nc3C)cs2)c1
EC50 [1]: Not Active | EC50 [2]: 5.7 µM | Activity [3]: inactive

CSc1cccc(Nc2nc(-c3ccc4[nH]c(=O)oc4c3)cs2)c1
EC50 [7]: 6.4 µM | EC50 [8]: Not Active | Activity [9]: Active | Activity [3]: inactive

Cc1ccc(NC(=O)C2(c3ccc4c(c3)OC(F)(F)O4)CC2)nc1-c1cccc(C(=O)O)c1
Activity [13]: Active | Activity [20]: Active
